{"source": "patent US12064448B2", "about": "“Methods for reducing bioavailability and absorption of ingested substances” (Nanyang Technological University, priority 2017, dated 2024)", "system": "pancreatic lipase", "experiment": "3-phase simulated digestion, pH-stat titration of fatty acids released in small intestinal phase", "type": "biochemical", "settings": "heavy cream, 13.3% fat, orlistat 4.8 mg/ml", "text": "Corn oils was purchased from Sigma, Inc. These aforementioned fat food models were combined with nanocellulose or other control fibers including psyllium husk (Sigma) and wheat dextrin (Sigma) or the lipase inhibitor orlistat (Sigma). To combine test materials with cream, water, cream and the test material were combined to achieve the desired final concentrations of each, and the mixture was vortexed for 30 seconds. To combine test fibers with corn oil, the oil and water components were first combined and homogenized at high speed for 1 minute. Fibers or orlistat were then added to the emulsion and the mixture was vortexed for 30 seconds.\nIn vivo simulated digestion was performed using a 3-phase (mouth, stomach, small intestine) method. Briefly, in the mouth phase of the gastrointestinal tract (GIT) simulator, the nano-enabled food was mixed with a simulated saliva fluid and incubated at 37° C. for 10 seconds. The resultant mouth digesta was then combined and incubated with a simulated gastric fluid and incubated for 2 hours at 37° C. on an orbital shaker to complete the stomach phase. […] Free fatty acid (FFA) at the beginning of the intestinal phase (before addition of lipase) and in the final digesta was measured using a fluorometric assay kit (Cayman Chemical Cat #700310). […]", "data": [{"compound": "CCCCCCCCCCC[C@@H](C[C@@H]1OC(=O)[C@H]1CCCCCC)OC(=O)[C@H](CC(C)C)NC=O", "note": "[orlistat]", "values": [{"measurement": "reduction of lipase activity (NaOH titrant used, percentage of total free fatty acids released)", "value": 91.5, "unit": "%"}]}]}
